The text below walks through data of paper PMC2854646 (Oncogene, 2008).

This experiment deals with T1, E1 (ubiquitin-activating enzyme) (Homo sapiens, UniProt P22314).
T1 sequence (P22314 2-1058): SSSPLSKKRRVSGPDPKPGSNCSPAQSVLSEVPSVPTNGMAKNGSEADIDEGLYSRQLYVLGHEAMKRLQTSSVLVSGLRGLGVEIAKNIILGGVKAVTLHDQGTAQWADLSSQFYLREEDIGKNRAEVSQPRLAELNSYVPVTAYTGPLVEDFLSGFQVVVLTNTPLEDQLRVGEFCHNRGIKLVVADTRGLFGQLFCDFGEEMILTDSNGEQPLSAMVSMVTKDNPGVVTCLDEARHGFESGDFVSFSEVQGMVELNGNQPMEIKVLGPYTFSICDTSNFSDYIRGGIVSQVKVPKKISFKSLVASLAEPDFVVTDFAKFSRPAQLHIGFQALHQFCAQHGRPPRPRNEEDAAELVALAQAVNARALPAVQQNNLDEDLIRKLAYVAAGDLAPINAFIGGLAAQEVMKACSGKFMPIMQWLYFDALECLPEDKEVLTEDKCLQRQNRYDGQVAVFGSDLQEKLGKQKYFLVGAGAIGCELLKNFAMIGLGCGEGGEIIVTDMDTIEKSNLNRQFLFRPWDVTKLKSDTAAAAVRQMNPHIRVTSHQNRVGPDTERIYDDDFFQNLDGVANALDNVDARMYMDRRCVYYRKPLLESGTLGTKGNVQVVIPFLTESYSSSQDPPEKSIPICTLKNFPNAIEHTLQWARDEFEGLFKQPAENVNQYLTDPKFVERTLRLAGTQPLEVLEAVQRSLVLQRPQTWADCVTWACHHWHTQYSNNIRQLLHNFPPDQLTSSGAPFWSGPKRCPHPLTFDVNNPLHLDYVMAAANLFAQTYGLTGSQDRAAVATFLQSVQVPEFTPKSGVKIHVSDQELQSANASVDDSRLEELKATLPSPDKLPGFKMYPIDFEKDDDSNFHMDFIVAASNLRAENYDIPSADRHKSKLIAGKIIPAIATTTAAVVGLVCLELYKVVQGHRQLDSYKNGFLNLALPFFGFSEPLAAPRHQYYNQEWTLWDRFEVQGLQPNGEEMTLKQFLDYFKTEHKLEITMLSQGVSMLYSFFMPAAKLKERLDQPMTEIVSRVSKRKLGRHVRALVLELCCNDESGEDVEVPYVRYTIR
Briefly: ubiquitin~E1 thioester immunoblot. Format: cell-based. For orientation: In western blotting, separated proteins are transferred to a membrane and probed.

pIC50: −log10 of the molar value.

For orientation: pIC50 means the negative decadic logarithm of the IC50, by convention in mol/L. In the case of `CCOC(=O)N1CCN(/[N+]([O-])=N/Oc2ccc([N+](=O)[O-])cc2[N+](=O)[O-])CC1` [JS-K, O^2-(2,4-dinitrophenyl) 1-[(4-ethoxycarbonyl)piperazin-1-yl]diazen-1-ium-1,2-diolate], the negative logarithm of the IC50 (pIC50) was about 5.70.
